Reference: US5358955A, “Aryl and heteroarylmethoxyphenyl inhibitors of leukotriene biosynthesis” (Abbott Laboratories, priority 1993, dated 1994)
pIC50: −log10 of the molar value.

Tested on: Stimulated LTB4 Formation in Human Polymorphonuclear Leukocytes
Assay: Inhibition of calcium ionophore-stimulated LTB4 formation in human polymorphonuclear leukocytes (PMNL)
Assay type: cell-based
Details: for pIC50: calcium ionophore 8.3 μM.3 μM, 15 min preincubation, 37° C, read-out: IC50, In Vitro Inhibitory Potencies Against Stimulated LTB4 Formation in Human Polymorphonuclear Leukocytes
Protocol: Inhibition of leukotriene biosynthesis was evaluated in an assay involving calcium ionophore-induced LTB4 expressed in human polymorphornuclear leukocytes (PMNL). Human PMNL isolated from heparinized (20 USP units/mL) venous blood (25 mL) obtained from healthy volunteers was layered over an equal volume of Ficoll-Hypaque Mono-Poly Resolving Medium (ICN Flow, Costa Mesa, CA) and centrifugated at 400 × g for 40 min at 20° C. The PMNL was collected, erythrocytes lysed and washed 2× and suspended at 1.0×10^7 cells/mL in Earle's balanced salt solution with 17 mM Earle's HEPES. Aliquots of the cell suspension were preincubated with test compounds dissolved in DMSO (final concentration <2%) for 15 min. and stimulated with calcium ionophore (final concentration 8.3 μM) for 10 min. at 37° C. Incubations were stopped with the addition of two volumes of ice-cold methanol followed by centrifuging the cell suspensions at 4° C. for 10 min at 450×g. The amount of LTB4 in the methanol extract was analyzed by enzyme-linked linked immunoassay or by HPLC analysis.

| pIC50 | Compound | % Inhibition, Stimulated LTB4 Formation in Human Polymorphonuclear Leukocytes (at ~0.095 μmol, calcium ionophore 8.3 μM) |
| --- | --- | --- |
| 7.18 | CN(O)C(=O)CON=C(CCCc1ccc(Cl)cc1)c1ccc(OCc2ccc3ccccc3n2)cc1 [Example 2, [(4-(4-Chlorophenyl)-1-(4-(2-quinolinylmethoxy)phenyl)butyl)oximino]acetic acid (N-hydroxy-N-methyl)amide] |  |
| 7.19 | CN(O)C(=O)C(CC1CCCCC1)c1ccc(OCc2ccc3ccccc3n2)cc1 (stereo not drawn) [Example 3, 3-Cyclohexyl-2-[4-(quinolin-2-yl-methoxy)phenyl]propionic acid (N-hydroxy-N-methyl)amide] |  |
| 7.17 | CNOC(=O)C(CC1CCCCC1)c1ccc(OCc2ccc3ccccc3n2)cc1 (stereo not drawn) [Example 13, N-Methyl-O-{3-cyclohexyl-2-[4-(quinolin-2-yl-methoxy)phenyl]-propionyl}-hydroxylamine] |  |
| 5.78 | CNOC(=O)C(CC1CCCCC1)c1ccc(OCc2ccccn2)cc1 (stereo not drawn) [Example 14, N-Methyl-O-{3-cyclohexyl-2-[4-(pyrid-2-yl-methoxy)phenyl]propionyl}-hydroxylamine] |  |
| 7.02 | CNOC(=O)C(c1ccc(OCc2ccc3ccccc3n2)cc1)C1CCCCC1 (stereo not drawn) [Example 15, N-Methyl-O-{2-cyclohexyl-2-[4-(quinolin-2-yl-methoxy)phenyl]-acetyl}-hydroxylamine] |  |

More lines, now with the values behind:

| Compound | pIC50 | % Inhibition, Stimulated LTB4 Formation in Human Polymorphonuclear Leukocytes (at ~0.095 μmol, calcium ionophore 8.3 μM) |
| --- | --- | --- |
| CN(O)C(=O)CSC(CCCc1ccc(Cl)cc1)c1ccc(OCc2ccc3ccccc3n2)cc1 (stereo not drawn) [Example 1, {[4-(4-Chlorophenyl)-1-(4-[2-quinolinylmethoxy]phenyl)butyl]thio}acetic acid (N-hydroxy-N-methyl)amide] |  | 63% |
| CN(O)C(=O)C=NOC(CCCc1ccc(Cl)cc1)c1ccc(OCc2ccc3ccccc3n2)cc1 (stereo not drawn) [Example 6, {[4-(4-Chlorophenyl)-1-(4-[2-quinolinylmethoxy]phenyl)butyl]iminoxy}acetic acid N-hydroxy-N-methyl-amide] | 6.88 |  |
| CN(O)C(=O)C(c1ccc(OCc2ccc3ccccc3n2)cc1)C1CCCCC1 (stereo not drawn) [Example 8, 2-Cyclohexyl-2-[4-(quinolin-2-yl-methoxy)phenyl]acetic acid N-hydroxy-N-methyl-amide] | 7.48 |  |
| CN(C)OC(=O)C(CC1CCCCC1)c1ccc(OCc2ccc3ccccc3n2)cc1 (stereo not drawn) [Example 17] | 7.35 |  |
